Key:
Experiment in all cases: Post-emergence test
Assay type in all cases: in vivo
Abutilon = conditions: 30 g/ha, after three weeks
Method: (§1) Post-emergence Test Solvent: 5 parts by weight of acetone Emulsifier: 1 part by weight of alkylaryl polyglycol ether To produce a suitable preparation of active compound, 1 part by weight of active compound is mixed with the stated amount of solvent, the stated amount of emulsifier is added and the concentrate is diluted with water to the desired concentration. Test plants which have a height of 5-15 cm are sprayed with the preparation of the active compound in such a way as to apply the particular amounts of active compound desired per unit area. After three weeks, the degree of damage to the plants is rated in % damage in comparison to the development of the untreated control. The figures denote: 0%=no action (like untreated control) 100%=total destruction

Amaranthus = conditions: 30 g/ha, after three weeks
Method: as §1

Chenopodium = conditions: 30 g/ha, after three weeks
Method: as §1

Veronica = conditions: 30 g/ha, after three weeks
Method: as §1

barley = conditions: 30 g/ha, barley (crop plant), after three weeks
Method: as §1

Compound: CS(=O)(=O)Nc1cc(N2C(=O)C3=C(CCCC3)C2=O)c(F)cc1C#N [Example 1, N-(4-cyano-2-fluoro-5-methylsulphonylaminophenyl)-3,4,5,6-tetrahydrophthalimide]
- degree of damage to the plants, % damage in comparison to untreated control (Abutilon): 100%
- degree of damage to the plants, % damage in comparison to untreated control (Amaranthus): 100%
- degree of damage to the plants, % damage in comparison to untreated control (Chenopodium): 95%
- degree of damage to the plants, % damage in comparison to untreated control (Veronica): 100%
- tolerance with respect to crop plants (barley): very good tolerance
